From EP3324923B1, “COMPOSITIONS AND METHODS USING PALYTHINE” (King's College London, priority 2015, dated 2017)

How the values were obtained:
[1] = system: HaCaT keratinocytes; assay: Single-cell gel electrophoresis (comet assay) of UV-induced DNA damage; format: cell-based, human; conditions: for percentage change in % DNA in the tail in protected cells compared to unprotected cells: n=3, t-test; for Mean % DNA Damage: 10J/cm^2 UVA
Protocol: This measurement is based on the comet assay (single cell gel electrophoresis) which detects damage to nuclear DNA that result from nucleotide excision repair (NER) and nucleotide photooxidation. Using the lesion specific enzymes T4N5 that recognizes CPD and hOGG1 that recognizes 8-oxoGua, palythine was tested by comparing pure palythine compound with naturally occurring amphoteric MAA mixtures to that of industry accepted sun-filter controls.
Powdered sunscreens were dissolved in PBS (Sigma-Aldrich, UK) at a concentration in which they can dissolve fully (0-0.3%). They were then applied (200ul/well) to wells of a 24 well plate containing a washed monolayer of cells. Cells were then irradiated and the sunscreen removed and washed post treatment.
Irradiation was carried out on cells in monolayers at a distance of 3 cm (Solar Simulator) in cold PBS or PBS + sunscreen. The plate was always placed on a cooling platform at 4°C to avoid overheating of the cells. Unirradiated samples were maintained in PBS for the same time and temperature as irradiated samples.
DNA damage was measured using the comet assay, using lesion specific enzymes to determine the type of damaged produced.
Glass slides are pre-coated with 1% agarose and allowed to dry. Cells were treated with UV +/- sunscreens. Positive controls were treated with ice cold 0.03% Hydrogen Peroxide for 5 minutes, negative controls were kept in the same conditions as the treatments without UV exposure.
After treatment cells were scraped gently with a cell scraper in EDTA solution to help dissociate cells and stop clumping. The cells (40ul) were then added to low melting point (LMP) agarose (160ul) and gently mixed. The final concentration of cells in the LMP agarose was 10,000 cells/100ul of agarose. Then 100ul of the agarose-cell solution was pipetted onto the pre-coated slides and a cover slip was placed onto the gels and left to set for 5-10 minutes then removed. Two replicates were placed on each slide. All steps were carried out on a cooled platform at 4°C. Slides were then places into lysis buffer (2.5M NaCl, 100mM EDTA, 10mM TRIS, 1% sodium sarcosinate, 1% Triton x-100, 10% DMSO) overnight at 4°C in the dark.
Slides were then washed in ice-cold ddH2O (2x5 mins) in the dark and once in ice cold enzyme reaction buffer (0.4mM HEPES, imMKCl, 0.005mM EDTA, 0.02mg/ml BSA) for 5 minutes. After this step different lesions were detected using lesion specific enzymes.
Cylcobutane pyrimidine dimers were measured using the T4 endonuclease V (T4endoV) enzyme. After washing, 50ul of enzyme diluted in reaction buffer (hOGG1- 3.2U/ml, T4EndoV - 0.1U/ml) or reaction buffer alone were added to each gel, a cover slip placed on top and left in a humidity chamber in the dark at 37°C for 45 minutes.
After enzyme treatment coverslips were removed and transferred into ice-cold electrophoresis buffer (10mM NaOH, 200mM EDTA, pH13 in ddH2O) and incubated at 4°C in the dark for 20 minutes. Electrophoresis was then carried out in fresh electrophoresis buffer for 25 minutes at 25V (1V/cm) 300mA, at 4°C in the dark. Slides were then washed in neutralisation buffer (0.4M TRIS, pH7.5) for 2x 10 minutes, and then in ddH2O for 2x 5 minutes and slides were allowed to dry overnight.
The DNA embedded in the slides was stained using Propidium Iodide solution (2.5ug/ml in PBS), 50ul of the solution was added to each gel and cover slip placed over. The slides were then analysed on a Zeiss Axiophot epifluorescence microscope (Carl Zeiss, Germany), with a green excitation filter (536nm) detected with a red emission at 617nm. Pictures covering the whole gel were taken, avoiding the outer edges, using a Nikon camera at a magnification of 10x. The images were then analysed using Comet Score Pro software (Tritek Corp, Summerduck, VA), typically scoring 150 individual comets per condition. […]

[2] = system: HaCaT cells; assay: UVR induced gene expression by qPCR (TaqMan, ΔΔCT); format: cell-based, human
Protocol: The gene expression analysis was performed on HaCat cells exposed as previously described. Following irradiation growth media was replaced RNA extraction was carried out 12 hours later. RNA extraction was carried out using the mirVana miRNA Isolation kit (Life Technologies, Paisley, UK) according to the manufacturers protocol for total RNA extraction. RNA quality was tested using RNA 6000 Nano Kit according to the manufacturers instruction.
Total RNA was then converted to cDNA using the High Capacity cDNA Reverse Transcription Kit (Applied Biosystems, Paisley, UK) according to manufacturers instructions. qPCR was performed using TaqMan Gene Expression Assays (Applied Biosystems) according to the manufacturers protocol with the following TaqMan FAM labelled DNA probes IL-20, IL-8, IL-6, TFRC, HMOX-1, MMP-3, MMP-12. VIC labelled GAPDH was used as the housekeeping gene. For each gene the fold change was measured using the ΔΔCT method.
Cells irradiated with 5J/cm^2 SSR with 0%, 0.3%, 4% and 10% palythine. RNA was extracted, cDNA synthesised, and gene expression analysed by qCR. […] The mean fold change ± SD was analysed with n≥3. The difference compared to 0% irradiated sample was analysed using ANOVA. Significance is expressed by *.
Cells irradiated with 5J/cm^2 SSR with 0%, 0.3% & 4% palythine or Helionori. RNA was extracted, cDNA synthesised, and gene expression analysed by qPCR. Data presented in figure 13 show the protection offered by palythine according to the invention compared with protection offered by prior art composition Helionori, as assessed by UVR induced gene expression.
DNA damage was then measured using the comet assay and IHC-IF looking at the specific DNA lesions of cyclobutane pyrimidine dimers (CPD) and 8-oxoGua. A percentage reduction in general and specific DNA damage was then determined by comparing cells irradiated with and without sunscreen compositions. Antioxidant ability was detected using H2DCFDA, which fluoresces when reacting with ROS with the addition of palythine post exposure. SSR induced gene expression covering a range of different markers (inflammation, photoageing, oxidative damage) was assessed using qPCR. The ability of palythine to reduce this gene expression was then assessed.

[3] = Figure 8, RNA extraction 12 hours after irradiation, gene not responsive to UVR

Q: `COC1=C(NCC(=O)O)CC(O)(CO)CC1=N` (stereo not shown) [palythine] was tested. Which “improved protection from DNA damage” value ([1]; 0.3% palythine (48% damage) versus Gelyma composition at 4% (76% damage)) did it give?
A: Its value is 58.33%.

Q: And the DNA damage ([1]; 0.3% palythine, from the applicant's data)?
A: Its DNA damage is 48%.

Q: What about the “percentage change in % DNA in the tail in protected cells compared to unprotected cells” value ([1]; 5J/cm^2 solar simulated UVR, 0.3% palythine, figure 9) of the same molecule?
A: Its value is “significant protection”.

Q: And the “percentage change in % DNA in the tail in protected cells compared to unprotected cells” value ([1]; 20J/cm^2 UVA, 0.3% palythine, figure 10)?
A: Its value is “significant protection”.

Q: What about the “Mean % DNA Damage” value ([1]; No Enzyme (single strand breaks / alkali labile sites), 0.1% palythine in PBS, mean percentage of tail DNA, n=1) of the same molecule?
A: The value was 14.263%.

Q: What about the “Mean % DNA Damage” value ([1]; No Enzyme (single strand breaks / alkali labile sites), 0.3% palythine in PBS, mean percentage of tail DNA, n=1) of the same molecule?
A: Its value is 9.914%.

Q: And the “Mean % DNA Damage” value ([1]; T4N5 (cyclobutane pyrimidine dimers, CPDs), 0.1% palythine)?
A: Its value is 26.328%.

Q: What about the “Mean % DNA Damage” value ([1]; T4N5 (cyclobutane pyrimidine dimers, CPDs), 0.3% palythine) of the same molecule?
A: The value was 15.345%.

Q: And the “protection for the DNA lesions tested (general damage, CPD and 8oxoGua)” value ([1]; comet assay and IHC-IF, palythine at 0.3% or greater, UVA and SSR induced damage, p=<0.05)?
A: The value was “significant protection”.

Q: And the “DNA damage caused by UVA and UVB exposure” value ([1]; lesion specific enzymes T4N5 (CPD) and hOGG1 (8-oxoGua))?
A: Its value is “significantly reduces DNA damage”.

Q: And the “protection, UVR induced gene expression (decrease compared to the irradiated control)” value ([2]; 0.3% palythine, 5J/cm^2 SSR, figure 13)?
A: The value was “significant protection”.

Q: What about the HMOX-1 gene expression ([2]; 0.3 % palythine, Figure 8, compared to the control) of the same molecule?
A: The HMOX-1 gene expression was “significantly reduced”.

Q: What about the “MMP-12 gene expression compared to the control” value [2, 3] of the same molecule?
A: The value was “no effect”.

Q: And the “TFRC gene expression compared to the control” value [2, 3]?
A: The value was “no effect”.

Q: And the “expression of the genes compared to the irradiated control (containing no sunscreen)” value ([2]; IL-20, IL-6, IL-8, MMP-3, HMOX-1, 5J/cm^2 SSR, 0.3% & 4%)?
A: The value was “significant reduction”.

Q: And the “SSR induced differential gene expression for all markers investigated” value ([2]; palythine at 0.3% or greater, all concentrations, p=<0.05)?
A: The value was “significantly reduced”.
